The values that follow are results of earlier work, collected in US10610707B2, “Oral care product for sensitive enamel care” (Colgate-Palmolive Company, priority 2010, dated 2020).

The conditions of the series: pH below which the compound dissolves, consuming acid.

With `O=C([O-])[O-].[Ca+2]` [calcium carbonate], the pH result is “approximately 8.75”. Regarding `[O]=[Zn]` [ZnO, Zinc oxide], the pH entry is “approximately 6.95”.
